Here are results for 19 molecules from patent publication US7045550B2, “Polyamines and analogs for protecting cells during cancer chemotherapy and radiotherapy” (Wisconsin Alumni Research Foundation, priority 2001, dated 2006).

The test system of experiment [1] is rat pups challenged with cytoxan. Briefly: Cytoxan (CTX)-induced alopecia model in rat pups, topical polyamine effector. It is filed as in vivo, Sprague Dawley rat. Particulars: for efficacy in the rat alopecia and/or dermatitis model: 5 mM, Examples 6, 7 and 8. On the procedure:
(§1) Induction of alopecia by cytoxan (CTX). Lactating Sprague Dawley mother rats with rat pups were purchased from Harlan Sprague Dawley (Indianapolis, Ind.). The mother rats were given food and water ad libitum. The rats pups were tested in the model of chemotherapy-induced alopecia described by Hussein A. M. et al., Science: 249, 1564 (1990). Cytoxan (CTX), a chemotherapeutic widely used in the treatment of cancer, was used to induce alopecia in the rats. A common side effect of cytoxan in patients is alopecia. Cytoxan and polyamine effector compounds were purchased from Sigma Chemicals Co. (St. Louis, Mo.). To produce CTX-induced alopecia, 7 to 10 day old rat pups were injected i.p. with 35 mg/kg of CTX prepared in phosphate-buffered saline. To produce reproducible CTX induced alopecia, we first tested several concentrations (35, 40, 45 ug/gm body weight) of CTX in phosphate-buffered saline (PBS), which was injected i.p. in 7–10 day old pups. Seven to ten days after CTX treatment the pups were examined to determine the degree of hair loss. The density of hair on the pups was then determined. 100% hair density represents that found on the untreated control pups while 0% represented pups with total hair loss. It was observed that 35 ug/gm of CTX was sufficient to induce 100% hair loss approximately 7 days after cytoxan challenge, and this concentration was used in subsequent experiments.
Different types of polyamine effector agents were tested in this model. The effectors were prepared in a delivery vehicle, consisting of from 60–100% ethanol in water, depending on the solubility of the compound. The compounds in ethanol/water solution from 50–150 μl in volume were topically administered to the backs of the pups once per day before and after CTX challenge. Using a micropipette, the formulation was applied to approximately 2 cm^2 section of skin to the backs of the rat pups. Specifically, the pups were treated once daily for the 4–5 days before CTX challenge, once on the day of CTX challenge and once daily for 5 days afterwards. Control groups consisted of pups receiving only delivery vehicle. Control groups treated with delivery vehicle were tested as part of every treatment study. Two or more animals were tested per group in both the control and test groups.
Approximately 7 to 10 days after CTX treatment, the pups were evaluated for alopecia. Hair loss was evaluated using a modified alopecia-scoring index described by Chen G. et al., Int. J. Cancer: 75, 303 (1998). A score of 0=no hair loss; a score of 1=10–30% hair loss; a score of 2=40–60% hair loss; a score of 3=70–90% hair loss; and a score of 4=100% hair loss.
as §1, with “It was observed that 35 ug/gm of CTX was sufficient to induce 100% hair loss approximately 7 days after cytoxan challenge, and this concentration was used in subsequent experiments.” left out

A further experiment has as its system DNA. Conditions: in vitro; Basu et al. 1993; cited from earlier work.
Experiment [2] relates to rats exposed to radiation. Put plainly: Radiation-induced dermatitis model in rats (15 Gy), topical polyamine effector. It counts as in vivo, Sprague Dawley rat. Particulars: for Avg dermatitis score: 15 Gy, vehicle 3.0. As for the experimental part:
To determine if treatment with a polyamine effector could effectively prevent radiation-induced dermatitis, adult rats were topically treated with several different classes of polyamine effectors before and after radiation treatment. Rats were exposed to medically relevant levels of radiation that could induce clinical radiation dermatitis. Sprague Dawley rats (Harlen Spraque Dawley) at 4–6 weeks-old were anesthetized with sodium pentobarbital at 40 mg/kg body weight (Sigma, St. Louis, Mo.) prior to radiation exposure. A defined, depilated area on the backs of rats was irradiated using a Mark I, Model 30, Cs 137 irradiator (J. L. Sheppard & Associates). Briefly, the back was stripped of hair to expose the skin using a 1:1 rosin/beeswax mixture. The rest of the body was protected from radiation exposure using a lead shield. A dose response study was initially preformed to reproduce relevant dermatitis that matched the Grade (I–IV) scale used to score the severity of radiation-induced dermatitis in the clinical setting. Radiation doses of 5–7 Gray (1 Gray (Gy)=[…]) produced Grade I dermatitis within 8–10 days. Radiation doses of 7–10 Gy produced Grade II dermatitis within 8–10 days. After 8–10 days, severe radiation dermatitis was produced at 20–25 Gy (Grade III dermatitis) or at 30–35 Gy (Grade IV). Radiation dermatitis of Grade II–III was considered most clinically relevant, so a radiation challenge dose of 15 Gy in the rats was used in subsequent treatment experiments. The stripped back region on the rats was treated topically with 10–50 mM polyamine effector once daily for 5 days before and 5 days after radiation challenge.
Different classes (natural polyamines and biosynthetic inhibitors) of polyamine effector agents were tested in this model. The polyamine effector compounds were purchased from Sigma Chemicals Co. (St. Louis, Mo.), except Vaniqa, a commercially available cream containing DFMO at 13.9% ([…]). The effectors were prepared in a delivery vehicle, consisting of from 60–100% ethanol in water, depending on the solubility of the compound. The compounds in ethanol/water solution from 100–150 μl in volume were topically administered to the stripped region. Rats treated with only the delivery vehicle served as controls. Eight to ten days post-radiation challenge, the rats were evaluated for dermatitis using a modified scoring scale described by Masuda K. et al. Int. J. Radiation Oncol. Biol. Phys: 12, 1645 (1986). Dermatitis score of 0=normal, 1=slight redness, scaly skin with no focal lesions, 2=moderate redness, breakdown of larger area, some small focal lesions, 3=skin very red, breakdown of most of the irradiated area, large ulcers and crusty lesions, 4=skin very red, breakdown of the entire irradiated area, severe exudation and large crusty lesions.
To determine if treatment with a non-natural polyamine analog could effectively prevent radiation-induced dermatitis, adult rats were topically treated with a polyamine analog before and after radiation treatment. Rats were exposed to medically relevant levels of radiation that could induce clinical radiation dermatitis. Sprague Dawley rats (Harlan Spraque Dawley) at 4–6 weeks old were anesthetized with sodium pentobarbital at 40 mg/kg body weight (Sigma, St. Louis, Mo.) prior to radiation exposure. A defined, depilated area on the backs of rats was irradiated using a Mark I, Model 30, Cs 137 irradiator (J. L. Sheppard & Associates). Briefly, back hair was removed to expose the skin by using Oster electric clippers followed by a safety razor. The rest of the body was protected from radiation exposure using a lead shield. A dose response study was initially preformed to reproduce relevant dermatitis that matched the Grade (I–IV) scale used to score the severity of radiation-induced dermatitis in the clinical setting. Radiation doses of 5–7 Gray (1 Gray (Gy)=[…]) produced Grade I dermatitis within 8–10 days. […]

Setting [3] is: 1 mM topical (Example 1), scale 0-4, vehicle 4.0.
Where [4] appears, read: 5 mM topical (Example 1), scale 0-4, vehicle 4.0.
Setting [5] is: 20 mM topical, scale 0-4, vehicle 4.0.
Setting [6] is: Example 6, 5 mM in 70% ethanol, topical, scale 0-4, vehicle 4.0.
The mark [7] stands for this setting: 50 mM in ethanol/water, scale 0-4.
Where [8] appears, read: 10 mM topical, scale 0-4, vehicle 4.0.
Setting [9] is: 50 mM topical, scale 0-4, vehicle 4.0.
Where [10] appears, read: Example 1, concentrations tested.
Where [11] appears, read: 10 mM in ethanol/water, scale 0-4.

For the molecule `CCNCCCNCCCNCCCNCC` [BE-3-3-3, N1, N11-bis (ethyl) norspermine], the “Avg Alopecia Score” value is given as 2.7 in experiment [1] (setting [3]); 2.3 in experiment [1] (setting [4]); 1.7 in experiment [1] (setting [5]); 0.3–1.5 in experiment [1] (Table 15, several data sets at multiple concentrations). Further, the “Alopecia Score +/- SEM” value in experiment [1] (Expt. 1, 1 mM, vehicle 4.0 +/- 0.0) is on record as 3.5 +/− 0.7; in experiment [1] (Expt. 1, 10 mM, vehicle 4.0 +/- 0.0) it was 1.5 +/− 0.7; in experiment [1] (Expt. 2, 1 mM, vehicle 3.5 +/- 0.7), 2.5 +/− 0.3; in experiment [1] (Expt. 2, 10 mM, vehicle 3.5 +/- 0.7), 0.25 +/− 0.3; in experiment [1] (Expt. 3, 1 mM, vehicle 4.0 +/- 0.0), 2.7 +/− 0.4; in experiment [1] (Expt. 3, 10 mM, vehicle 4.0 +/- 0.0) it was 2.0 +/− 0.3.

With `CCNCCCCNCCCCNCCCCNCC` [BE-4-4-4, 1N,14N-Bisethylhomospermine], the “DNA binding and aggregation” value with DNA is “binds to DNA in vitro but does not aggregate it”.

`NCCCNCCSP(=O)(O)O` [amifostine, S-2-(3-aminopropylamino) ethylphoshorothioic acid, reference compound]: the “radioprotective activity” value in experiment [2] (radiation-induced dermatitis assay, as compared with putrescine) is listed as “good radioprotective activity”.

With `CCNCCCCNCC#CCNCCCCNCC` [SL-11103], the “efficacy in the rat alopecia and/or dermatitis model” value (from here on “efficacy”) in experiment [1] is recorded as “showed efficacy”.

Consider `CCNCCCNCC1CCC1CNCCCNCC` (stereo not drawn) [SL-11044], for which the “Avg Alopecia Score” value in experiment [1] (setting [6]) was 2.5.

`NC(=NCCC[C@H](N)C(=O)O)NO` [NOHA, NG-hydroxy-arginine]: the “Avg Alopecia Score” value in experiment [1] (setting [4]) worked out at 2.75.

In experiment [2] (setting [7]), `NCCCCN` [Putrescine] returned an Avg dermatitis score of 3.0. Moreover, the “Avg Alopecia Score” value in experiment [1] (2 mM topical, scale 0-4, vehicle 4.0) amounted to 3.0; in experiment [1] (setting [4]), 2.5; in experiment [1] (setting [8]), 2.0; in experiment [1] (setting [9]) it was 1.5.

Regarding `CCNCCCNCC1CC1CNCCCNCC` (stereo not drawn) [SL-11038], the “efficacy” value in experiment [1] was “showed efficacy”. In experiment [1] (setting [6]), the “Avg Alopecia Score” value stood at 3.5.

As to `C[C@](N)(CCCN)C(=O)O` [Alpha-Methyl ornithine, reference compound], the “Avg Alopecia Score” value in experiment [1] (setting [4]) and in experiment [1] (setting [5]) was 4.0 throughout. Also, in experiment [1] (setting [10]), the “effect on CTX-induced alopecia” value is on record as “did not prevent hair loss”.

For the molecule `NCCCCCN` [Cadaverine], the “Avg Alopecia Score” value in experiment [1] (setting [4]) is recorded as 4.0; in experiment [1] (setting [9]) it was 2.5.

In experiment [2] (setting [7]), `NCCCNCCCCNCCCN` [Spermine] returned an Avg dermatitis score of 2.8. Besides, the “Avg Alopecia Score” value in experiment [1] (setting [5]) is 3.0; in experiment [1] (setting [9]), 2.0; in experiment [1] (100 mM topical once daily in ethanol/water, scale 0 (no hair loss) to 4 (100% hair loss), vehicle 4.0), 0.0.

`NCCCNCCCN` [Norspermidine]: the “Avg Alopecia Score” value in experiment [1] (setting [4]) worked out at 4.0; in experiment [1] (setting [9]), 2.0.

Turning to `Cl.NCCC[C@](N)(C(=O)O)C(F)F` (racemic) [DFMO, DL-Alpha Difluoromethylornithine HCl, reference compound], in experiment [2] (setting [11]), the Avg dermatitis score amounted to 2.5. Further, the “Avg Alopecia Score” value came to 4.0 in experiment [1] (setting [3]), 2.0 in experiment [1] (setting [4]), 2.0 in experiment [1] (setting [8]) and 3.5 in experiment [1] (setting [5]). The “effect on CTX-induced alopecia” value in experiment [1] (Example 1, 5–10 mM) was “effectively prevented alopecia”.

Regarding `CCNCCCNCC#CCNCCCNCC` [SL-11091], the “Avg Alopecia Score” value in experiment [1] (setting [6]) was 3.0.

Regarding `CCNCCCCNCCCCNCCCCNCCCCNCCO` [SL-11141], the “efficacy” value in experiment [1] is recorded as “showed efficacy”. Also, in experiment [1] (Example 6, 5 mM), the “effectiveness at preventing alopecia after CTX treatment” value is reported as “less effective”. Besides, the “Avg Alopecia Score” value in experiment [1] (setting [6]) was found to be 3.3.

As for `NCCCCNCCCN` [Spermidine], the “Avg Alopecia Score” value was found to be 2.0 in experiment [1] (setting [8]) and 3.5 in experiment [1] (setting [9]).

As to `CNCCCNCC#CCNCCCNC` [SL-11092], the “efficacy” value in experiment [1] is given as “showed efficacy”. Besides, the “Avg Alopecia Score” value in experiment [1] (Table 10, treatment (1 mM), vehicle 4.0) is given as 0.0; in experiment [1] (Table 15, cytoxan-induced, re-screening summary), 0.0.

Take `N=C(N)NCCCCN` [Agmatine]: the Avg dermatitis score in experiment [2] (setting [11]) is on record as 1.8; in experiment [2] (20 mM in ethanol/water, scale 0 (normal) to 4), 2.0. The “Avg Alopecia Score” value in experiment [1] (setting [3]) and in experiment [1] (setting [8]) was 3.0 in each case. The “effect on CTX-induced alopecia” value in experiment [1] (setting [10]) is “reduced, but did not prevent alopecia”.

Consider `CCNCCCCNCCCCNCCCCNCCCCNCC` [BE-4-4-4-4, 3,8,13,18,23-Pentaazapentacosane], for which, in the experiment on DNA, the “DNA binding and aggregation” value was “both binds DNA and aggregates it”.
